Values of other authors, collected in US20220142981A1, “APREMILAST LIPOPHILIC TOPICAL PHARMACEUTICAL COMPOSITIONS” (APRAMITHA INNOVATIONS PRIVATE LIMITED, priority 2019, published 2022).

solubility in polar solvents (polar solvents): minimal solubility
solubility in water (water): insolubility
SMILES: CCOc1cc([C@@H](CS(C)(=O)=O)N2C(=O)c3cccc(NC(C)=O)c3C2=O)ccc1OC [Apremilast, N-[2-[(lS)-l-(3-ethoxy-4-methoxyphenyl)-2-(methylsulfonyl)ethyl]-l,3-dioxo-2,3-dihydro-lH-isoindol-4-yl]acetamide]
